Laboratory results from US12616203B2, “Use of 3-isoxazolidinones compounds as selective herbicides” (FMC Corporation, priority 2014, dated 2026).

What was measured:
Wild buckwheat [1] = test: Ex12 PRE 2,4-DC + dimethenamid-P, % control 28 DAT, Colby; type: in vivo, Polygonum convolvulus
Protocol: (§1) The tested weeds include: wild buckwheat (Polygonum convolvulus, POLCO), velvetleaf (Abutilon theophrasti, ABUTH), cheat (Bromus secalinus, BROSE), wild oat (Avena fatua, AVEFA), radish (Raphanus sativus, RAPSN), corn poppy (Papaver rhoeas, PAPRH), yellow foxtail (Setaria pumila, SETLU), Italian ryegrass (Lolium perenne ssp. multiflorum, LOLMU). The tested crop was Oilseed rape.
(§2) This greenhouse study was conducted to assess the preemergence (PRE) weed control and oilseed rape tolerance with 2,4 DC (CS 36.7%) and dimethenamid-P (Outlook®, 63.9%) tank-mix combinations.
(§3) Metazachlor (Butisan, 43.1%) plus dimethenamid-P applied as tank mix at 500 g each was applied as commercial standard. Treatments were replicated 3 times and flats were watered after planting but before the treatment and then lightly watered after treatment application. Thereafter flats were watered and fertilized routinely.

Wild oat = test: as above; type: in vivo, Avena fatua
Protocol: as §1, §2, §3

weeds [2] = test: Ex20 PRE greenhouse; type: in vivo; settings: weed and rate in the words
From the text: Herbicides: • 2,4 DC-21 (36.7% CS): 125, 170, 210, or 250 g ai/ha alone and as tank-mix with dimethenamid-P • Dimethanamid-P (Outlook, 63.9%): 250, 375, 500 g ai/ha in combination with 2,4 DC and alone, additional treatment alone at 750 g ai/ha. • Metazachlor (Butisan 43.1%): 500 g ai/ha
Herbicides included as standards for comparison were metazachlor plus dimethenamid-P (500 g) as tank mix combination. […] Treatments were replicated 3 times. […] Thereafter flats were watered and fertilized routinely.

jimsonweed = test: Ex15 PRE 2,4-DC + S-metolachlor, % control 28 DAT, Colby; type: in vivo, Datura stramonium
From the text: (§4) The weeds tested in this study were redroot pigweed (Amaranthus retroflexus, AMARE), Jimsonweed (Datura stramonium, DATST), black nightshade (Solanum nigrum, SOLNI), large crabgrass (Digitaria sanguinalis, DIGSA), Pennsylvania smartweed (Polygonum pensylvanicum, POLPY), horseweed (Conyza canadensis, ERICA), wild buckwheat (Polygonum convolvulus, POLCO). The crop tested was Corn (var. Viking).
(§5) To determine PRE efficacy and corn injury, five rates of each 2,4 DC (36.7% CS) and S-metolachlor (Dual II Magnum®, 82.4%) were applied either alone or as tank-mix. 2,4 DC was applied at 0, 125, 170, 210, or 250 g ai/ha and S-metolachlor was applied at 0, 267, 534, 801, or 1070 g ai/ha. Additional treatments included application of premix of pyroxasulfone plus fluthiacet-methyl (Anthem™ 23.3%) at 169.9 g ai/ha and tank-mix of mesotrione (Callisto®, 40%) at 123 g plus S-metolachlor at 1252 g. Treatments were applied just after the planting of large crabgrass, Jimsonweed, black nightshade, redroot pigweed, Pennsylvania smartweed, horseweed, wild buckwheat, and corn.
(§6) Flats were watered and fertilized routinely after treatment application. Each treatment was replicated three times. […] Corn injury was rated for bleaching and stunting.

Black nightshade = test: as above; type: in vivo, Solanum nigrum
From the text: as §4, §5, §6

Pennsylvania smartweed = test: as above; type: in vivo, Polygonum pensylvanicum
From the text: as §4, §5, §6

Wild buckwheat [3] = test: as above; type: in vivo, Polygonum convolvulus
From the text: as §4, §5, §6

weeds [4] = test: Ex10 PRE greenhouse; type: in vivo; settings: 28 DAT, weed and rate in the words
From the text: Treatments 1-12 of 2,4-DC and aclonifen tank-mix combinations follow same rates listed above. […] Sulfentrazone (Spartan 4F® 39.6%) at 280 g ai/ha, pendimethalin (Prowl 3.3®EC, 37.4%) at 784 g ai/ha, or S-metolachlor (Dual II Magnum® 82.4%) at 1084 g ai/ha were applied as commercial standards. Treatments were replicated 3 times and flats were watered after planting but before the treatment and lightly watered after treatment application. Thereafter flats were watered and fertilized routinely. […] Shepherd's-purse was rated at 21 and 28 DAT only, due to delayed emergence.

[5] = test system: weeds; Corn (var. Viking); test: Ex15 PRE greenhouse; type: in vivo; settings: rate in the words
From the text: as §4, §5, §6

weeds [6] = test: Ex16 PRE greenhouse; type: in vivo; settings: weed and rate in the words
From the text: (§7) To determine PRE efficacy, five levels of 2,4 DC (36.7% CS) 0, 125, 170, 210, or 250 g ai/ha and five levels of pyroxasulfone (KIH485-85WG) 0, 50, 65, 80, or 95 g ai/ha were applied either alone or as tank-mix. Additional treatments consisted of premix of pyroxasulfone plus fluthiacet-methyl (Anthem™ 23.3%) at 169.9 g ai/ha, S-metolachlor (Dual II Magnum, 82.4%) at 1388 g, and tank-mix of mesotrione (Callisto, 40%) at 123 g plus S-metolachlor at 1252 g. […] Treatments were applied before the emergence of black nightshade, giant foxtail, green foxtail, yellow foxtail, large crabgrass, kochia, redroot pigweed, common ragweed, and barnyardgrass.
(§8) Flats were watered and fertilized routinely after treatment application. Each treatment was replicated three times.

weeds [7] = test: Ex21 PRE greenhouse; type: in vivo; settings: 28 DAT, weed and rate in the words
From the text: 2,4 DC (36.7% CS) was applied PRE at 0, 125, 170, 210, or 250 g ai/ha alone or as a tank-mix with S-metolachlor (Dual II Magnum®, 82.4%) at 0, 267, 534, 801, or 1070 g ai/ha. Pyroxasulfone plus fluthiacet-methyl (Anthem™, 23.3%) applied at 169.9 g ai/ha, and the tank-mix of mesotrione (Callisto®, 40%) at 123 g plus S-metolachlor (Dual II Magnum®, 82.4%) at 1252 g were included as standards for comparison. […] Thereafter flats were watered and fertilized routinely. Each treatment was replicated three times.

weeds [8] = test: Ex22 PRE greenhouse; type: in vivo; settings: 28 DAT, weed and rate in the words
From the text: 2,4 DC (36.7% CS) was applied PRE at 0, 125, 170, 210, or 250 g ai/ha alone or as a tank-mix with S-metolachlor (Dual II Magnum®, 82.4%) at 0, 267, 534, 801, or 1070 g ai/ha. Pyroxasulfone plus fluthiacet-methyl (Anthem™, 23.3%) applied at 169.9 g ai/ha, and the tank-mix of mesotrione (Callisto®, 40%) at 123 g plus S-metolachlor (Dual II Magnum®, 82.4%) at 1252 g were included as a standards for comparison.
Thereafter flats were watered and fertilized routinely. Each treatment was replicated three times.

weeds; Corn = test: Ex25 PRE greenhouse; type: in vivo; settings: rate in the words
From the text: The crop tested in this study was Corn.
2,4 DC-21 (36.7% CS) was applied PRE at 0, 125, 170, 210, or 250 g ai/ha alone or as a tank-mix with pyroxasulfone (KIH-485, 85% WP) at 0, 50, 65, 80, or 95 g ai/ha. Pyroxasulfone plus fluthiacet-methyl (Anthem™, 23.3%) applied at 169.9 g ai/ha, s-metolachlor (Dual II Magnum®, 82.4%) applied at 1389 g, and the tank-mix of mesotrione (Callisto®, 40%) at 123 g plus s-metolachlor (Dual II Magnum®, 82.4%) at 1252 g were included as a standards for comparison. […] Thereafter flats were watered and fertilized routinely.

Common ragweed = test: Ex16 PRE 2,4-DC + pyroxasulfone, % control 28 DAT, Colby; type: in vivo, Ambrosia artemisiifolia
From the text: as §7, §8

Morningglory sp. = test: Ex38 PRE 2,4-DC + pyroxasulfone, % control 28 DAT, Colby; type: in vivo, Ipomea spp; settings: PRE
From the text: Pyroxasulfone plus fluthiacet-methyl (ANTHEM™, 23.3%) applied at 165 g ai/ha was included as a standard for comparison. […] Thereafter flats were watered and fertilized routinely.

weeds [9] = test: Ex13 PRE greenhouse; type: in vivo; settings: 28 DAT, weed and rate in the words
From the text: Pyroxasulfone (KIH-485, 85%) at 74.3 g ai/ha, pendimethalin (Prowl 3.3EC, 37.4%) at 1200 g ai/ha, or a premix of chlorsulfuron plus metsulfuron-methyl (Report Extra, 75%) at 15.8 g ai/ha were applied as commercial standards. […] Treatments were replicated 3 times and flats were watered after planting before the treatment and lightly watered after treatment application. Thereafter flats were watered and fertilized routinely.

[10] = test system: weeds; Wheat, barley, and oil seed rape (OSR); test: Ex19 PRE greenhouse; type: in vivo; settings: rate in the words
From the text: In this study, the crops tested included Wheat, barley, and oil seed rape (OSR).
To determine weed efficacy and wheat, barley or OSR selectivity, 2,4 DC (CS 36.7%) and Diflufenican (CS 19.5%) were applied preemergence either alone or as tank-mix partners at the following rates. 2,4 DC was applied at 125, 170, 210 and 250 g ai/ha while Diflufenican was applied at 50, 75, and 100 g ai/ha. Pyroxasulfone (KIH-485, 85%) at 74.3 g ai/ha, pendimethalin (Prowl 3.3EC, 37.4%) at 1200 g ai/ha, or a premix of chlorsulfuron plus metsulfuron-methyl (Report Extra, 75%) at 15.8 g ai/ha were applied as commercial standards.
Herbicides included as standards for comparison were pyroxasulfone, pendimethalin, and a pre mix of chlorsulfuron plus metsulfuron methyl, all applied at labeled rates as indicated above. Treatments were replicated 3 times. […] Thereafter flats were watered and fertilized routinely.

weeds [11] = test: Ex24 PRE greenhouse; type: in vivo; settings: weed and rate in the words
From the text: The tested weeds include Giant foxtail (Setaria faberi, SETFA), green foxtail (Setaria virdis, SETVI), yellow foxtail (Setaria pumila, SETLU), black nightshade (Solanum nigrum, SOLNI), kochia (Kochia scoparia, KCHSC), redroot pigweed (Amaranthus retroflexus, AMARE), common ragweed (Ambrosia artemisiifolia, AMBEL), barnyardgrass (Echinochloa crus-galli, ECHCG), large crabgrass (Digitaria sanguinalis, DIGSA).
as §7, with “DC-21” for “DC”, “Magnum®,” for “Magnum,”, “(Callisto®,” for “(Callisto,”, “bamyardgrass. […] Flats were watered and fertilized routinely after treatment application. Each treatment was replicated three times.” for “barnyardgrass.”

[12] = dimethenamid-P alone 250 g ai/ha
[13] = dimethenamid-P alone 375 g ai/ha
[14] = dimethenamid-P alone 500 g ai/ha
[15] = S-metolachlor alone 267 g ai/ha
[16] = S-metolachlor alone 534 g ai/ha
[17] = S-metolachlor alone 801 g ai/ha
[18] = S-metolachlor alone 1070 g ai/ha

## COC[C@H](C)N(C(=O)CCl)c1c(C)csc1C [Dimethenamid-P, dimethenamid-P, reference compound]
Wild buckwheat [1]; [12]
  Y: 32%
Wild buckwheat [1]; [13]
  Y: 70%
Wild buckwheat [1]; [14]
  Y: 63%
Wild oat; [12]
  Y: 66%
Wild oat; [13]
  Y: 73%
Wild oat; [14]
  Y: 90%
Weeds [2]
  weed control in words: alone controlled redroot pigweed, giant foxtail, and goosegrass at all rates; common chickweed at ≥375 g; shepherd's-purse at ≥500 g; and Canada thistle at 750 g

## CCc1cccc(C)c1N(C(=O)CCl)[C@@H](C)COC [S-metolachlor, reference compound]
jimsonweed; [15]
  Y: 17%
jimsonweed; [16]
  Y: 17%
jimsonweed; [17]
  Y: 23%
jimsonweed; [18]
  Y: 28%
Black nightshade; [15]
  Y: 46%
Black nightshade; [16]
  Y: 85%
Black nightshade; [17]
  Y: 90%
Black nightshade; [18]
  Y: 95%
Pennsylvania smartweed; [15]
  Y: 75%
Pennsylvania smartweed; [16]
  Y: 95%
Pennsylvania smartweed; [17]
  Y: 100%
Pennsylvania smartweed; [18]
  Y: 100%
Wild buckwheat [3]; [15]
  Y: 33%
Wild buckwheat [3]; [16]
  Y: 65%
Wild buckwheat [3]; [17]
  Y: 82%
Wild buckwheat [3]; [18]
  Y: 85%
Weeds [4]
  weed control in words: at 1064 g controlled only two weeds
[5]
  weed control / crop safety in words: alone gave control of all species at different rates except Jimsonweed
Weeds [6]
  weed control in words: controlled black nightshade, redroot pigweed, barnyardgrass, large crabgrass, and all three foxtail species
Weeds [7]
  weed control in words: applied alone controlled yellow foxtail, green foxtail, and barnyardgrass at all rates, quackgrass or common chickweed at ≥534 g, and common lambsquarters at ≥801 g
Weeds [8]
  weed control in words: applied alone controlled Johnsongrass and goosegrass at all rates and controlled Benghal dayflower, prickly sida and common lambsquarters at 801 g
weeds; Corn
  weed control / crop safety in words: controlled only black nightshade and also caused severe stunting to corn

## Cn1nc(C(F)(F)F)c(CS(=O)(=O)C2=NOC(C)(C)C2)c1OC(F)F [Pyroxasulfone, pyroxasulfone, reference compound]
Common ragweed; pyroxasulfone alone 50 g ai/ha
  Y: 40%
Common ragweed; pyroxasulfone alone 65 g ai/ha
  Y: 53%
Common ragweed; pyroxasulfone alone 80 g ai/ha
  Y: 40%
Common ragweed; pyroxasulfone alone 95 g ai/ha
  Y: 70%
Morningglory sp.; pyroxasulfone 30 g ai/ha
  Y (% control, pyroxasulfone alone): 9%
Morningglory sp.; pyroxasulfone 60 g ai/ha
  Y (% control, pyroxasulfone alone): 60%
Morningglory sp.; pyroxasulfone 90 g ai/ha
  Y (% control, pyroxasulfone alone): 65%
Weeds [9]
  weed control in words: at 74.3 g controlled all weeds except tall morningglory and shepherd's-purse
Weeds [6]
  weed control in words: controlled all species except common ragweed which was not controlled at any rate
[10]
  weed control / crop safety in words: controlled all weeds except field violet and was safe on wheat only
Weeds [11]
  weed control in words: controlled all species except common ragweed which was not controlled at any rate
